# Measured values as given in patent US10508109B2 (priority 2015, dated 2019).
# Where two headings read alike, the source gives them in different places.
# Columns and labels:
# [1] = system: HFL1; assay: Cell-based assay, anti-proliferative activity (Cell Counting Kit-8, 72 hours); conditions: Homo sapiens, read-out: IC50 (μM) HFL1
# Outline: (§1)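 CCK-8 viability read 72 h after compound exposure over an 8-point series from 1.5625 to 100 micro-M plus zero. Seeding density 2,000–3,000 cells/well; IC50 from the dilution series.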
# [2] = system: CCD-18Co; assay: as above; conditions: Homo sapiens, read-out: IC50 (μM) CCD-18Co
# Outline: as §1
# [3] = system: PC14; assay: as above; conditions: Homo sapiens, read-out: IC50 (μM) PC14
# Outline: as §1
# [4] = system: HCT-116; assay: as above; conditions: Homo sapiens, read-out: IC50 (μM) HCT-116
# Outline: as §1
# [5] = target: SUV39H2 (Homo sapiens (Human), UniProt Q9H5I1); conditions: read-out: IC50 (μM) Suv 39H2 assay; enzyme assay
# [6] = system: A549; assay: Cell-based assay, anti-proliferative activity (Cell Counting Kit-8, 72 hours); conditions: Homo sapiens, read-out: IC50 (μM) A549
# Outline: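 After compound exposure of cells in 96-well plates, growth was measured colorimetrically and converted into IC50 values.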
# [7] = HFL1 cells, 72 hours, Cell Counting Kit-8
# [8] = CCD-18Co cells, 72 hours, Cell Counting Kit-8
# [9] = PC-14, PC14 cells, 72 hours, Cell Counting Kit-8
# [10] = HCT-116 cells, 72 hours, Cell Counting Kit-8
# [11] = A549 cells, 72 hours, Cell Counting Kit-8
# SUV39H2, sequence (Q9H5I1 whole entry): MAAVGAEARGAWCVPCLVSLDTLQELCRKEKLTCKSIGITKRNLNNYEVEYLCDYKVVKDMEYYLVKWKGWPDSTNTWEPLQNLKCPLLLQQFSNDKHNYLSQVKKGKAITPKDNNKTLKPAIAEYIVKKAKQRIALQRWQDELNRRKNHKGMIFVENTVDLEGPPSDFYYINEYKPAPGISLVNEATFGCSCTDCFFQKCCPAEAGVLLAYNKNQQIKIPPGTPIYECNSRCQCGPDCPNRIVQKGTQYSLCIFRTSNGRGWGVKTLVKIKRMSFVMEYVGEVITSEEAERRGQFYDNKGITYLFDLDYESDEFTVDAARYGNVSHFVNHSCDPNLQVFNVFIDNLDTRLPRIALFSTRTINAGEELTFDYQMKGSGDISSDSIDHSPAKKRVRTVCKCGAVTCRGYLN
Compound,"IC50 [1, 7] [µM]","IC50 [2, 8] [µM]","IC50 [3, 9] [µM]","IC50 [4, 10] [µM]",IC50 [5] [µM],"IC50 [6, 11] [µM]","IC50 ([1]; HFL1, 72 h) [µM]","IC50 ([2]; CCD-18Co, 72 h) [µM]","IC50 ([3]; PC-14, 72 h) [µM]","IC50 ([4]; HCT-116, 72 h) [µM]","IC50 ([6]; A549, 72 h) [µM]"
"COc1cc(OC)c(-c2cn3ccc(NC(=O)[C@@H]4CCCN4C)cc3n2)cc1Cl [Example 263, (S)—N-(2-(5-chloro-2,4-dimethoxyphenyl)imidazo[1,2-a]pyridin-7-yl)-1-methylpyrrolidine-2-carboxamide]",1.8,1.4,1.7,0.99,0.065,1.8,,,,,
"COc1cc(C)c(-c2cn3ccc(N4CCN(S(=O)(=O)C5CC5)C(COCCN(C)C)C4)cc3n2)cc1Cl (stereo not drawn) [Example 264, 2-((4-(2-(5-chloro-4-methoxy-2-methylphenyl)imidazo[1,2-a]pyridin-7-yl)-1-(cyclopropylsulfonyl)piperazin-2-yl)methoxy)-N,N-dimethylethanamine]",4.7,5,4.5,8.5,0.07,5.6,,,,,
"COc1cc(OC)c(-c2cn3ccc(-c4ccc(C(=O)NCCCN)cc4)cc3n2)cc1Cl [Example 265, N-(3-aminopropyl)-4-(2-(5-chloro-2,4-dimethoxyphenyl)imidazo-[1,2-a]pyridin-7-yl)benzamide]",4.7,7.3,4.2,5.2,0.036,5.5,,,,,
"CC[C@H](C)[C@H](NC)C(=O)Nc1ccn2cc(-c3cc(Cl)c(OC)cc3OC)nc2c1 [Example 266, (2S,3S)—N-(2-(5-chloro-2,4-dimethoxyphenyl)imidazo[1,2-a]pyridin-7-yl)-3-methyl-2-(methylamino)pentanamide]",1.2,1.3,1.5,2.8,0.0454,1.5,,,,,
"COc1cc(OC)c(-c2cn3ccc(-c4ccc(C(=O)NCC5CCNCC5)cc4)cc3n2)cc1Cl [Example 267, 4-(2-(5-chloro-2,4-dimethoxyphenyl)imidazo[1,2-a]pyridin-7-yl)-N-(piperidin-4-ylmethyl)benzamide]",10,10,10,10,0.0458,10,,,,,
"COc1cc(OC)c(-c2cn3ccc(-c4ccc(C(=O)NC5CCNCC5)cc4)cc3n2)cc1Cl [Example 268, 4-(2-(5-chloro-2,4-dimethoxyphenyl)imidazo[1,2-a]pyridin-7-yl)-N-(piperidin-4-yl)benzamide]",3.8,4.3,3,2.8,0.0383,4.3,,,,,
"COc1cc(OC)c(-c2cn3ccc(-c4ccc(C(=O)NCCNCCNC(=O)OC(C)(C)C)cc4)cc3n2)cc1Cl [Example 269, tert-butyl (2-((2-(4-(2-(5-chloro-2,4-dimethoxyphenyl)imidazo[1,2-a]pyridin-7-yl)benzamido)ethyl)amino)ethyl)carbamate]",1.3,0.87,0.94,0.75,0.0408,1.2,,,,,
"COc1cc(OC)c(-c2cn3ccc(-c4ccc(NCc5ncc[nH]5)cc4)cc3n2)cc1Cl [Example 270, N-((1H-imidazol-2-yl)methyl)-4-(2-(5-chloro-2,4-dimethoxyphenyl)-imidazo[1,2-a]pyridin-7-yl)aniline]",0.89,1.7,0.45,1,0.0199,0.99,,,,,
"COc1cc(OC)c(-c2nc3cc(N4CCN(C(=O)OC(C)(C)C)CC4)ccn3c2Br)cc1Cl [Example 271, tert-butyl 4-(3-bromo-2-(5-chloro-2,4-dimethoxy-phenyl)imidazo[1,2-a]pyridin-7-yl)piperazine-1-carboxylate]",1.2,1.4,0.57,1.5,0.0267,1.3,,,,,
"COc1cc(OC)c(-c2cn3ccc(NC(=O)[C@H](C(C)C)N(C)C)cc3n2)cc1Cl [Example 272, (S)—N-(2-(5-chloro-2,4-dimethoxyphenyl)imidazo[1,2-a]pyridin-7-yl)-2-(dimethylamino)-3-methylbutanamide]",,,,,0.0961,,0.45,0.47,0.98,2.9,0.86
"COc1cc(OC)c(-c2cn3ccc(N4CCN(C(=O)OC(C)(C)C)C(C)C4)cc3n2)cc1Cl (stereo not drawn) [Example 275, tert-butyl 4-(2-(5-chloro-2,4-dimethoxyphenyl)imidazo[1,2-a]pyridin-7-yl)-2-methylpiperazine-1-carboxylate]",1.1,1.4,0.87,1.4,0.00333,1.3,,,,,
"COc1cc(OC)c(-c2cn3ccc(N4CCN(c5ccccn5)CC4)cc3n2)cc1Cl [Example 276, 2-(5-chloro-2,4-dimethoxyphenyl)-7-(4-(pyridin-2-yl)piperazin-1-yl)-imidazo[1,2-a]pyridine]",0.69,1.1,1.2,0.71,0.00774,1.2,,,,,
"COC(=O)N[C@H]1CC[C@H](Nc2ccn3cc(-c4cc(Cl)c(OC)cc4OC)nc3c2)CC1 [Example 277, (methyl-4-((2-(5-chloro-2,4-dimethoxyphenyl)imidazo[1,2-a]pyridin-7-yl)amino)-trans-cyclohexyl)carbamate]",0.7,0.78,0.93,0.8,0.00524,0.98,,,,,
"COc1cc(OC)c(-c2cn3ccc(N[C@H]4CC[C@H](CN5CCN(Cc6ccccc6)CC5)CC4)cc3n2)cc1Cl [Example 278, trans-N-(4-((4-benzylpiperazin-1-yl)methyl)cyclohexyl)-2-(5-chloro-2,4-dimethoxyphenyl)imidazo[1,2-a]pyridin-7-amine 2,2,2-trifluoroacetate]",,,,,0.0707,1.4,0.73,1.2,1.3,0.84,
"COc1cc(OC)c(-c2cn3ccc(N4CCN(c5ccnc(N)n5)CC4)cc3n2)cc1Cl [Example 279, 4-(4-(2-(5-chloro-2,4-dimethoxyphenyl)imidazo[1,2-a]pyridin-7-yl)-piperazin-1-yl)pyrimidin-2-amine]",0.33,0.33,0.38,0.32,0.00938,0.32,,,,,
"COc1cc(OC)c(-c2cn3ccc(OC4CCN(S(=O)(=O)c5cccs5)CC4)cc3n2)cc1Cl [Example 280, 2-(5-chloro-2,4-dimethoxyphenyl)-7-((1-(thiophen-2-ylsulfonyl)piperidin-4-yl)oxy)imidazo[1,2-a]pyridine]",1.6,1.7,0.8,1.9,0.0711,2,,,,,
"COc1cc(OC)c(-c2cn3ccc(N4CCN(c5cccc(F)n5)CC4)cc3n2)cc1Cl [Example 281, 2-(5-chloro-2,4-dimethoxyphenyl)-7-(4-(6-fluoropyridin-2-yl)piperazin-1-yl)imidazo[1,2-a]pyridine]",0.76,0.83,0.9,0.82,0.0988,1.2,,,,,
"COc1cc(OC)c(-c2cn3ccc(N4CCN(c5ccccc5)CC4)cc3n2)cc1Cl [Example 282, 2-(5-chloro-2,4-dimethoxyphenyl)-7-(4-phenylpiperazin-1-yl)-imidazo[1,2-a]pyridine]",1.4,1.5,0.96,1.4,0.0349,1.5,,,,,
"COc1cc(OC)c(-c2cn3ccc(N4CCN(c5ncccc5C#N)CC4)cc3n2)cc1Cl [Example 283, 2-(4-(2-(5-chloro-2,4-dimethoxyphenyl)imidazo[1,2-a]pyridin-7-yl)-piperazin-1-yl)nicotinonitrile]",0.69,0.45,0.68,0.42,0.0141,0.66,,,,,
"COc1cc(OC)c(-c2cn3ccc(OC4CCN(c5ccnc(N)n5)CC4)cc3n2)cc1Cl [Example 284, 4-(4-((2-(5-chloro-2,4-dimethoxyphenyl)imidazo[1,2-a]pyridin-7-yl)oxy)-piperidin-1-yl)pyrimidin-2-amine]",1.1,1.3,0.98,0.71,0.0918,1.5,,,,,
"COc1cc(OC)c(-c2cn3ccc(N4CCN(c5cnccn5)CC4)cc3n2)cc1Cl [Example 285, 2-(5-chloro-2,4-dimethoxyphenyl)-7-(4-(pyrazin-2-yl)piperazin-1-yl)imidazo[1,2-a]pyridine]",0.69,0.7,0.7,0.67,0.00747,0.72,,,,,
